Data on 4 compounds can be found in patent US10179785B2, “Imidazotriazinone or imidazopyrazinone derivatives, and use thereof” (ST PHARM CO., LTD., priority 2014, dated 2019).

This assay addresses T1, tankyrase 1 (Homo sapiens, UniProt O95271).
T1 construct: purchased Trevigen 4700-096-K
T1 sequence (O95271 1-1327): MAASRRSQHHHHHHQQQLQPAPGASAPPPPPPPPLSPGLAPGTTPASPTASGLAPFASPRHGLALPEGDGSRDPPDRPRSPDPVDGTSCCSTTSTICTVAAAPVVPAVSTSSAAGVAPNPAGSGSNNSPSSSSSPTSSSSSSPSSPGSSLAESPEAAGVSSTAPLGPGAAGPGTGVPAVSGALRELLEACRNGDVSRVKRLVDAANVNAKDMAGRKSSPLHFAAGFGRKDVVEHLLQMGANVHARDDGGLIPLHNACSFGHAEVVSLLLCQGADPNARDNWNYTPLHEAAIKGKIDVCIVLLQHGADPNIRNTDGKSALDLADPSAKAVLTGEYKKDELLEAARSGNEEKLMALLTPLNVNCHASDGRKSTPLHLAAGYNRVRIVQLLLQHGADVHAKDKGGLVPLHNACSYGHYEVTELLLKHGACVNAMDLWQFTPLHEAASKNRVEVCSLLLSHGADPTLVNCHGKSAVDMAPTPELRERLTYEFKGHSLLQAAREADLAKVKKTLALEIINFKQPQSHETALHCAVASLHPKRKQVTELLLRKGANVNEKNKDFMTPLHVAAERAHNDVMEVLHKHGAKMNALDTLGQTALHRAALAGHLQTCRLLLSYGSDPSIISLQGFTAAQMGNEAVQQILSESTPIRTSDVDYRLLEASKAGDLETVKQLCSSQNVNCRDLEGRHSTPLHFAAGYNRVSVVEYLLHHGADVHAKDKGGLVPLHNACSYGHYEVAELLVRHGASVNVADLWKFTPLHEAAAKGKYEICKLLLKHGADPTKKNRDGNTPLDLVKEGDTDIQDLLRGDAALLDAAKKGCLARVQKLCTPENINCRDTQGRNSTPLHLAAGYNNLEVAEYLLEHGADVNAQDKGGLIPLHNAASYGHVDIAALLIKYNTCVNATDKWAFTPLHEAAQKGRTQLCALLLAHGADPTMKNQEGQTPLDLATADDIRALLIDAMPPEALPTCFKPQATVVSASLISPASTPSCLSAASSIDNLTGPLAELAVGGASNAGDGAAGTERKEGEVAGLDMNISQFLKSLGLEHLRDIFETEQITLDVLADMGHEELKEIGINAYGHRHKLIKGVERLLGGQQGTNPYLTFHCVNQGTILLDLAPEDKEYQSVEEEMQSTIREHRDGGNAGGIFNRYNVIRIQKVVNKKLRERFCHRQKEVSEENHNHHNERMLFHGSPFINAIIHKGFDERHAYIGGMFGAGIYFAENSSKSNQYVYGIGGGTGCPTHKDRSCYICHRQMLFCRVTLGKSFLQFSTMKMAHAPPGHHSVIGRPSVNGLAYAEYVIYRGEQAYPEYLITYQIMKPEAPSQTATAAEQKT
The experiment in a line: Analysis of activity of tankyrase 1 (Trevigen kit, ELISA absorbance at 450 nm). In kind it is biochemical. Conditions: Trevigen kit Cat. No. 4700-096-K; reaction at rt for 30 min; read-out: TNKS1 (IC50). Here is the method:
Activities of novel compounds synthesized according to Examples 1 to 48 against tankyrase 1 were analyzed using a Trevigen kit (Cat. No. 4700-096-K). Poly PAR histone protein-coated 96-well plate, anti-PAR monoclonal antibody and goat anti-mouse IgG-HRP were used for measurement of absorbance by ELISA method. Specifically, 20× I-PAR assay buffer was diluted to 1× by adding water, and 50 μL of the diluted buffer was added to each well of the 96-well plate followed by reacting at rt for 30 min. Then, the supernatant was completely removed from each well and 10 μL of 1× I-PAR assay buffer and 15 μL of assay substrate were added to each well along with 1 μL of a 50× solution of inhibitors to be tested, which were the compounds obtained in the Examples 1 to 48. 10 m Units/μL of tankyrase 1 enzyme was diluted 50-fold with 1× I-PAR assay buffer and 25 μL of the diluted enzyme was added to each well and reacted while stirring at rt for 30 min. One without any compound of the present invention was used as a positive control and another containing 1× I-PAR assay buffer with the same volume instead of tankyrase 1 enzyme was used as a negative control. Upon completion of the reaction, 200 μL of PBSX, which was prepared by adding 0.1% triton X-100 to PBS, was added and removed and this washing process was repeated twice. Washing was repeated twice more using PBS in the same manner. 5× antibody diluent was diluted with distilled water to 1× concentration, 50 μL of the diluted goat anti-mouse IgG-HRP to 1/2000 was added to each well and reacted while stirring at rt for 30 min. Washes were carried out twice using PBSX and PBS, respectively. After addition of 50 μL of TACS-sapphire to each well of the plate, the plate was blocked from light to react for 10 min to 15 min and the color of the reaction solution turned blue. To stop the reaction, 50 μL of 0.2N HCl was added to turn the solution yellow. Finally, the absorbance of the resulting solution was measured at 450 nm.
(ELISA stands for enzyme-linked immunosorbent assay.)
`Cc1ncc2c(=O)[nH]c(N3CCN(c4c(F)cc(OCCN5CCN(C)CC5=O)cc4F)CC3)nn12` [compound 33, 2-(4-(2,6-Difluoro-4-(2-(4-methyl-2-oxopiperazin-1-yl)ethoxy)phenyl)piperazin-1-yl)-7-methylimidazo[1,5-f][1,2,4]triazin-4(3H)-one]: the half-maximal inhibitory concentration (IC50) (usually the point on the concentration scale where inhibition reaches its midpoint) came to 180 nM.
As for `Cc1ncc2c(=O)[nH]c(N3CCN(c4c(F)cc(OCCN5CCC(N)CC5)cc4F)CC3)nn12` [compound 34, 2-(4-(4-(2-(4-Aminopiperidin-1-yl)ethoxy)-2,6-difluorophenyl)piperazin-1-yl)-7-methylimidazo[1,5-f][1,2,4]triazin-4(3H)-one], the figure is 60.5 nM; as for `Cc1ncc2c(=O)[nH]c(N3CCN(c4c(F)cc(OCCN5CCC(O)C5)cc4F)CC3)nn12` (stereo not shown) [compound 35, 2-(4-(2,6-Difluoro-4-(2-(3-hydroxypyrrolidin-1-yl)ethoxy)phenyl)piperazin-1-yl)-7-methylimidazo[1,5-f][1,2,4]triazin-4(3H)-one], 102 nM.
As for `Cc1ncc2c(=O)[nH]c(N3CCN(c4c(F)cc(OCCN5CCC(O)CC5)cc4F)CC3)nn12` [compound 36, 2-(4-(2,6-Difluoro-4-(2-(4-hydroxypiperidin-1-yl)ethoxy)phenyl)piperazin-1-yl)-7-methylimidazo[1,5-f][1,2,4]triazin-4(3H)-one], the figure is 65.2 nM.
